Test results taken from PMC5428777, “Molecular Characteristics and Serodiagnostic Potential of Dihydrofolate Reductase from Echinococcus granulosus” (Scientific Reports, 2017).
Read-outs that look alike come from different tables or passages of the source.

Experiments:
[1] = tested on: E. granulosus protoscoleces (PSCs); assay: microbe, parasite or virus in culture; type: cell-based, Echinococcus granulosus; conditions: for effect on PSCs (protoscolex viability): all three concentrations tested
Protocol: Cysts of E. granulosus were obtained from a slaughterhouse in Qinghai Province, China. The PSCs were separated in sterile conditions and washed three times in phosphate-buffered saline (PBS). Rinsed PSCs were diluted to a concentration of 1,500 mL^−1 and maintained as previously described, [47]. Briefly, PSCs were cultured in RPMI 1640 medium (Hyclone) with 10% fetal bovine serum (Hyclone), 10% hydatid fluid, 100 U.mL^−1 penicillin G and 100 μg.mL^−1 streptomycin (Sigma, USA). Adult worms were collected from the small intestine of a 2-month-old dog 35 days post-infection with 20,000 PSCs. A 5-month-old dog and two 9-week-old female New Zealand white rabbits were obtained from the Laboratory Animal Center of Sichuan Agricultural University. All animals were provided with food pellets and sterilised water ad libitum.
[…]. PSCs incubated with only assay buffer (DHFR assay kit; Sigma) or DMSO were used as negative controls. The vitality of protoscoleces was assessed using a Trypan Blue exclusion test[50], [51]. The daily percentages of PSCs vitality were calculated on six microscopic fields covering approximately 10–20 PSCs. The effect of per drug concentration was monitored in triplicate and in two separate trials.

rEg-DHFR [2] = target: T1, rEg-DHFR (Echinococcus granulosus, UniProt U6JJS2); assay: Inhibition of rEg-DHFR enzyme activity by antifolates (DHFR assay kit, absorbance 340 nm); type: biochemical
T1 sequence (U6JJS2 1-191): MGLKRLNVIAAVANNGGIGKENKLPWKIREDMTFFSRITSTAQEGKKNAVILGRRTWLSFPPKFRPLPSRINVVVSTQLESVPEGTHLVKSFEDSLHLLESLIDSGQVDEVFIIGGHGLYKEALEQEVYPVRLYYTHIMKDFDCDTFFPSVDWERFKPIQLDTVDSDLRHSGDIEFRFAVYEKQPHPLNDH
Protocol: The temperature was controlled at 22 °C.
The IC50 was calculated using GraphPad Prism software by nonlinear curve-fitting.

rEg-DHFR [3] = target: T1, rEg-DHFR; assay: Enzyme kinetics of rEg-DHFR towards substrate DHF (Michaelis-Menten fit); type: biochemical; conditions: 0-120 μM DHF, 60 μM NADPH, 22 °C
Protocol: The enzymatic characteristics of rEg-DHFR and human DHFR enzyme (DHFR assay kit; Sigma) were analysed using a DHFR assay kit (Sigma) following the manufacturer’s instructions[41]. Briefly, a range of purified rEg-DHFR concentrations was added to the assay buffer and mixed well and the optimal concentration was determined. Reaction progress was measured based on the decrease in absorbance at 340 nm. Data was recorded at 25 s intervals for 2.5 min. The temperature was controlled at 22 °C. […] Kinetic parameters (Vmax and Km) were calculated using GraphPad Prism® software (San Diego, CA, USA; http://www.graphpad.com) based on a Michaelis-Menten curve fit.

[4] = tested on: E. granulosus protoscoleces (PSCs); set-up: method as in PMID 11133110; conditions: positive control; ref [30]; cited from earlier work
[5] = substrate: Nc1nc2c(c(=O)[nH]1)N=C(CNc1ccc(C(=O)N[C@@H](CCC(=O)O)C(=O)O)cc1)CN2; assay: purified protein, by the assay type; conditions: other: 0-120 μM DHF, 60 μM NADPH, 22 °C
[6] = 50 μM dihydrofolic acid, 60 μM NADPH, mean ± SD, read-out: IC50 for rEg-DHFR

Nc1nc(N)c2nc(CNc3ccc(C(=O)N[C@@H](CCC(=O)O)C(=O)O)cc3)cnc2n1 [Aminopterin, aminopterin]
effect on PSCs (protoscolex viability) ([1]; after 7 days of incubation): slight effect
IC50 (rEg-DHFR [2]): 63.7 ± 6.76 nM

Nc1nc2c(c(=O)[nH]1)N=C(CNc1ccc(C(=O)N[C@@H](CCC(=O)O)C(=O)O)cc1)CN2 [DHF, 7,8-dihydrofolate]
Vmax of rEg-DHFR for substrate DHF (rEg-DHFR [3]): 2.384 ± 0.01874 µmol/min/mg

CN(Cc1cnc2nc(N)nc(N)c2n1)c1ccc(C(=O)N[C@@H](CCC(=O)O)C(=O)O)cc1 [Methotrexate, methotrexate]
effect on PSCs (protoscolex viability) ([1]; after 7 days of incubation): slight effect

O=C(C1CCCCC1)N1CC(=O)N2CCc3ccccc3C2C1 (stereo not drawn) [Praziquantel]
protoscolicidal activity [4]: exhibit protoscolicidal activity

CCc1nc(N)nc(N)c1-c1ccc(Cl)cc1 [Pyrimethamine, pyrimethamine]
percentage vitality of PSCs ([1]; 800 μM, after 7 days of incubation, control 82.65 ± 6.11%): 20.67 ± 2.49%
IC50 (rEg-DHFR [2]; [6]): 860 ± 93.5 nM

COc1cc(Cc2cnc(N)nc2N)cc(OC)c1OC [Trimethoprim, trimethoprim]
viability at 3000 µM ([1]; Echinococcus granulosus, 168 h, read-out: PSCs remaining viable in culture): 38.7 ± 6.18%
IC50 (rEg-DHFR [2]; [6]): 30800 ± 2090 nM

B1: rEg-DHFR (Echinococcus granulosus) (protein)
chain: T1 sequence (U6JJS2 1-191)
Km [5]: 18.74 ± 0.5651 µM

B2: human DHFR (Homo sapiens) (protein)
chain: MVGSLNCIVAVSQNMGIGKNGDLPWPPLRNEFRYFQRMTTTSSVEGKQNLVIMGKKTWFSIPEKNRPLKGRINLVLSRELKEPPQGAHFLSRSLDDALKLTEQPELANKVDMVWIVGGSSVYKEAMNHPGHLKLFVTRIMQDFESDTFFPEIDLEKYKLLPEYPGVLSDVQEEKGIKYKFEVYEKND
Km [5]: 14.61 ± 0.6590 µM
Vmax [5]: 3.370 ± 0.02327 µmol/min/mg
